One test has as its target α1-adrenergic receptor. In words: α1-Adrenergic receptor binding test ([³H] prazosin displacement, rat brain membrane preparation). To be noted: 0.6 nM [³H] prazosin, 25 °C for 30 minutes, read-out: IC₅₀. As for the experimental part:
The α1-adrenergic receptor binding reaction was performed in accordance with the method of Greengrass and Bremner [Eur. J. Pharmacol., 55, 323 (1979)].
A rat was decapitated, and the brain was taken out and homogenized with 30 volumes of 50 Mm Tris hydrochloride (Ph 7.4). The homogenate was centrifuged at 1,000 x g for 5 minutes and the supernatant was further centrifuged at 48,000 x g for 20 minutes. The precipitate thus obtained was suspended in 50 mM Tris hydrochloride (pH 7.4) and recentrifuged at 48,000 x g for 20 minutes. The obtained precipitate was suspended in 50 mM Tris hydrochloride (pH 7.4) in such a manner as to give a concentration of 1.0 mg/ml protein. Thus an α1-adrenergic receptor preparation was obtained.
To 1.0 ml portions of this receptor preparation were added 0.6 nM [³H] prazosin and specimens at various concentrations, and the mixture was allowed to react at 25 °C for 30 minutes.
After the completion of the reaction, each reaction mixture was subjected to a rapid filtration through a glass filter (Whatman GF/B) and the filter was washed with 3 ml portions of 50 mM tris hydrochloride (pH 7.4) thrice. The radioactivity on the filter was measured with a liquid scintillation counter.
The difference between the radioactivity in the absence of any specimen and the radioactivity obtained in the presence of 10 µM of prazosin was referred to as the specific binding of the control. The ratio of the radioactivity obtained at the time of adding each specimen to the control radioactivity was determined and plotted against the specimen concentration. Then the fifty percent inhibitory concentration (IC₅₀) of each specimen was calculated by the curve fitting method with the use of a computer.

The next test deals with dog (beagle). In words: Depressor activity test (telemetry of blood pressure and cardiac rate in conscious dogs after oral administration). Type of test: in vivo. The method, then:
The depressor activity test was performed in accordance with the method described in Journal of Physiology, 448, 307 - 320 (1992).
Under pentobarbital anesthesia, a catheter for detecting and transmitting the blood pressure was embedded in a branch of the femoral artery of a dog (weighing 10 kg, beagle, each group having 4 animals). When the animal restored from the postoperative aggression, a powder of the compound 1 encapsulated in a cellulose capsule (3 mg/kg) was orally administered to the animal, which had been fasted, without anesthesia or restriction.
Via the catheter embedded in the body of the beagle, the cardiac rate was measured from the blood pressure and the blood pressure pulse wave in accordance with the telemetry method. The blood pressure lowering effect attained the maximum level 30 minutes after the administration and the blood pressure was lowered by about 12 mmHg. This depressor activity persisted even 24 hours after the administration.

The subject of test [1] is smooth muscle of the beagle prostate gland. Description: Urination disorder-relieving activity test (phenylephrine-induced contraction of isolated prostate smooth muscle, Magnus' method). Type of test: cell-based, dog. To be noted: specimen 10⁻⁸ to 10⁻⁶ M for 15 minutes, against cumulative phenylephrine, calculated from two dose/reaction curves, read-out: IC₅₀. As for the experimental part:
The urination disorder-relieving activity test was performed in accordance with the method described in FEDERATION PROCEEDINGS, 45 (11), (1986). Under pentobarbital anesthesia, the prostate gland of a male dog (weighing 7 to 10 kg, beagle, each group having 3 animals) was taken out. Then a preparation of the smooth muscle of the beagle prostate gland thus taken out was prepared in a conventional manner and the isometric tensile strength was measured by Magnus' method. After incubating for 60 to 90 minutes, phenylephrine (10⁻⁷ to 10⁻⁴ M) was accumulatively administered to give a control dose/reaction curve. After washing away the phenylephrine, the preparation was treated with a specimen (10⁻⁸ to 10⁻⁶ M) for 15 minutes. In the presence of the specimen, phenylephrine (10⁻⁷ to 10⁻³ M) was accumulatively administered again and a dose/reaction curve was obtained in the same manner. Based on these two dose/reaction curves, the IC₅₀ of each specimen was calculated.

[2] abbreviates: 3 mg/kg orally, time after the administration.

Structures are written as SMILES.

Consider `CCC(=O)Cn1cc(CCN2CCN(c3ccccc3OC)CC2)c2ccccc21` [compound 1, 3-[2-(4-(2-methoxyphenyl)piperadinyl)ethyl]-1-(2-oxobutyl)indole], for which the IC50 at α1-adrenergic receptor was 7.75 nM. Further, the cardiac rate result in the test with dog (beagle) (3 mg/kg orally) is given as “somewhat lowered”. Besides, in the test on dog (beagle) (3 mg/kg orally (powder in cellulose capsule), fasted, without anesthesia, 30 minutes after the administration), the “blood pressure was lowered (maximum level)” value was “about 12 mmHg”. Also, in the test with dog (beagle) (setting [2]), the “persistence of depressor activity” value is ≥ 24 h and the “time at which the blood pressure lowering effect attained the maximum level” value is 30 min. Further, the potency estimated from few doses in test [1] was 1.4 nM.

As for `CCC(=O)Cn1cc(CCN2CCN(c3cccc(C)c3C)CC2)c2ccccc21` [compound 4], at α1-adrenergic receptor, the IC50 was 3.93 nM.

`CCC(=O)Cn1cc(CCN2CCN(c3ccc(F)cc3)CC2)c2ccccc21` [compound 8]: the IC50 at α1-adrenergic receptor came to 5.13 nM.

Turning to `CCCC(=O)Cn1cc(CCN2CCN(c3ccccc3OC)CC2)c2ccccc21` [compound 14], on α1-adrenergic receptor, the IC50 turned out to be 0.801 nM.

As for `COc1ccccc1N1CCN(CCc2cn(CC(=O)C(C)C)c3ccccc23)CC1` [compound 15], the IC50 on α1-adrenergic receptor came to 0.679 nM.

On to `COc1ccccc1N1CCN(CCCNc2cc(=O)n(C)c(=O)n2C)CC1` [urapidil, reference compound], for which, on α1-adrenergic receptor, the IC50 was found to be 741 nM. For the same compound, in test [1], the potency estimated from few doses is 53.7 nM.
